# Entries after “also recorded” stand apart in the source; their conditions may differ.
# What was measured:
# renal perfusion = experiment: MAG3 renogram functional renal imaging; assay type: in vivo, human; details: one of three patients, 800 mg b.i.d., day 3, reverted to normal by day 14
# Procedure: (§1) In an attempt to understand further the pathogenesis of these biochemical toxicities, three patients were studied more intensively. Urinary retinol-binding protein (RBP), a marker of renal tubular damage was measured in conjunction with functional renal imaging (MAG3 renograms) to estimate renal blood flow pretreatment on days 3 and 14. […] This was associated with bilateral increases in renal parenchymal retention on day 3 on MAG3 scans, which reverted to normal by day 14 (see Figure 1). […] There were no consistent changes in urinary RBP in any of these patients (Table 3).
# [1] = set-up: method as in earlier work; details: exposure over a 24-h period, preclinical data, ref De la Motte and Gianella-Borradori, 2004, Whittaker et al, Tang et al, 2005; cited from earlier work
# [2] = Phase I toxicity (NCI CTC v2.0) in patients; assay type: in vivo, human; details: for No. with grade 3 & 4 ALT increased / No. with grade 3 & 4 AST increased / No. with grade 3 & 4 Alk Phos increase / No. with grade 3 & 4 Anorexia / No. with grade 3 & 4 Bilirubin increase / No. with grade 3 & 4 CKMB increase / No. with grade 3 & 4 Fatigue / No. with grade 3 & 4 Hyperglycaemia / No. with grade 3 & 4 Hypokalemia / No. with grade 3 & 4 Hyponatraemia / No. with grade 3 & 4 Hypotension / No. with grade 3 & 4 Lymphopenia / No. with grade 3 & 4 Rash / No. with grade 3 & 4 adverse events / No. with grade 3 & 4 γ GT increase: first course; for Patients with derangements in liver biochemistry (γGT and ALP elevations): 7-day treatment period
# Excerpt: Dose-limiting toxicity (DLT) was defined as drug-related toxicity in the first cycle, including grade 4 neutropenia for 7 days or more, neutropenic fever, platelet count <25 × 10^9 l^−1 and/or non-haematological toxicity⩾grade 3. This definition excluded nausea and vomiting subsequently responding to antiemetic therapy and reversible grade 3 increases in liver transaminases. The maximum tolerated dose (MTD) was defined as a dose below which DLT occurred in more than 30% of the patients. Toxicities were evaluated according to the National Cancer Institute Common Toxicity Criteria, version 2.0.
# (§2) Before commencing treatment, a complete medical history was taken and physical examination was performed. The following pretreatment baseline examinations were performed within 4 weeks of starting treatment: full blood count, including white blood cell differential; reticulocyte count, haptoglobin, prothrombin time and Coombs test; serum biochemistry, including sodium, potassium, urea, creatinine, calcium, phosphorus, creatine kinase and isoenzymes, total protein, albumin, bilirubin (direct and total), alkaline phosphatase (ALP), alanine aminotransferase (ALT), aspartate aminotransferase (AST), γ-glutamyl transferase (γGT), lactate dehydrogenase and uric acid; urinalysis; pregnancy test, electrocardiogram and a chest X-ray. Weekly evaluations included history, physical examination, toxicity assessment according to the CTC criteria version 2.0 and full blood count and serum chemistries. Radiographic assessment of tumour was performed within 3 weeks before the patient starting treatment and after every two cycles, according to standard RECIST methodology. Patients were taken off protocol upon disease progression, unacceptable toxicity, investigator discretion, serious violation of protocol or at their own request, and were followed for 28 days after the last administration of the study drug.
# In addition, more intensive blood chemistry testing was performed on days 1, 3, 5 and 7.
# Cdk8 = details: background statement, no reference given; cited from earlier work
# [3] = set-up: method as in Raynaud et al, 2005; details: mouse, single dose 500 mg kg^−1 p.o.; ref Raynaud et al, 2005; cited from earlier work
# [4] = set-up: method as in Pierga et al, 2003; details: for 5 days, twice-daily oral schedule; ref Pierga et al, 2003; cited from earlier work
# Cdk6 = details: background statement, no reference given; cited from earlier work
# [5] = 28 days treatment in rodents; no reference given; cited from earlier work
# malignant solid tumour = experiment: Antitumour activity in patients (RECIST); assay type: in vivo, human; details: for Patients with stable disease after course 2: progressed by course 4
# Procedure: as §2
# [6] = system: Retinoblastoma phosphorylation and cyclin D1 levels in peripheral blood mononuclear cells; experiment: Pharmacodynamics in peripheral blood mononuclear cells (western blot); assay type: in vivo, human; details: peripheral blood mononuclear cells of patients, first cycle
# Procedure: Whole blood was collected from patients at selected time points into lithium–heparin Vacutainer® tubes (Vacutainer, BD, Franklin Lakes, NJ, USA). Each tube was inverted several times to ensure thorough mixing and then mixed with sterile 0.9% saline at a ratio of 1:1. This was then layered over ficol (Lymphoprep® Nycomed, Oslo, Norway) and centrifuged at 1200 r.p.m. (400 g equivalent) at 18°C for 30 min. The resulting mononuclear cell layer was then removed and resuspended in 0.9% NaCl. Cell pellets were obtained by centrifugation (600 g) and flash frozen in liquid nitrogen. Mononuclear cells were then stored at −70°C in labelled cryovials until further analysis.
# Cell pellets were treated with lysis buffer (50 mM Tris–HCl, 150 mM NaCl, pH 7.5, 1% NP40, 2 mM PMSF, 10 μg ml^−1 aprotinin, 10 μg ml^−1 leupeptin, 1 mM activated sodium orthovanadate, 1 mM sodium fluoride and 10 mM β-glycerophosphate) for 30 min on ice. Samples (20–100 μg of protein) were heat-denatured in Laemmli sample buffer (10% glycerol, 5% β-mercaptoethanol, 2% sodium dodecyl sulphate (SDS), 62.5 mM Tris (pH 6.8), 0.05% bromphenol blue, final concentrations) and separated by SDS—polyacrylamide gel electrophoresis (PAGE) using pre-cast 10 or 15-well 20 or 10% Tris–glycine polyacrylamide gels (Invitrogen, Netherlands). […]
# [7] = system: Urinary retinol binding protein; experiment: Urinary retinol-binding protein, marker of renal tubular damage; assay type: in vivo, human; details: range 0.10–100.0
# Procedure: as §1
# [8] = same patient, 800 mg b.i.d., course 2
structure (smiles),measurement,setting,value
CC[C@H](CO)Nc1nc(NCc2ccccc2)c2ncn(C(C)C)c2n1 [Seliciclib],Renal perfusion by MAG3 perfusion indices,renal perfusion,reduction in renal perfusion bilaterally
same,concentration range achieving clinically relevant biological effects,[1],7.9–30.2 μM
same,No. with grade 3 & 4 ALT increased,"[2]; 100 mg b.i.d, 3 subjects",0
same,No. with grade 3 & 4 AST increased,"[2]; 100 mg b.i.d, 3 subjects",0
same,No. with grade 3 & 4 Alk Phos increase,"[2]; 100 mg b.i.d, 3 subjects",0
same,No. with grade 3 & 4 Anorexia,"[2]; 100 mg b.i.d, 3 subjects",0
same,No. with grade 3 & 4 Bilirubin increase,"[2]; 100 mg b.i.d, 3 subjects",0
same,No. with grade 3 & 4 CKMB increase,"[2]; 100 mg b.i.d, 3 subjects",0
same,No. with grade 3 & 4 Fatigue,"[2]; 100 mg b.i.d, 3 subjects",0
same,No. with grade 3 & 4 Hyperglycaemia,"[2]; 100 mg b.i.d, 3 subjects",0
same,No. with grade 3 & 4 Hypokalemia,"[2]; 100 mg b.i.d, 3 subjects",0
same,No. with grade 3 & 4 Hyponatraemia,"[2]; 100 mg b.i.d, 3 subjects",0
same,No. with grade 3 & 4 Hypotension,"[2]; 100 mg b.i.d, 3 subjects",0
same,No. with grade 3 & 4 Lymphopenia,"[2]; 100 mg b.i.d, 3 subjects",0
same,No. with grade 3 & 4 Rash,"[2]; 100 mg b.i.d, 3 subjects",0
same,No. with grade 3 & 4 adverse events,"[2]; 100 mg b.i.d, 3 subjects",0
same,No. with grade 3 & 4 γ GT increase,"[2]; 100 mg b.i.d, 3 subjects",0
same,Toxicity at the 100 mg dose level,"[2]; 100 mg b.i.d., three patients",No significant toxicity
same,No. with grade 3 & 4 ALT increased,"[2]; 200 mg b.i.d, 6 subjects",1
same,No. with grade 3 & 4 AST increased,"[2]; 200 mg b.i.d, 6 subjects",1
same,No. with grade 3 & 4 Alk Phos increase,"[2]; 200 mg b.i.d, 6 subjects",1
same,No. with grade 3 & 4 Anorexia,"[2]; 200 mg b.i.d, 6 subjects",0
same,No. with grade 3 & 4 Bilirubin increase,"[2]; 200 mg b.i.d, 6 subjects",1
same,No. with grade 3 & 4 CKMB increase,"[2]; 200 mg b.i.d, 6 subjects",1
same,No. with grade 3 & 4 Fatigue,"[2]; 200 mg b.i.d, 6 subjects",0
same,No. with grade 3 & 4 Hyperglycaemia,"[2]; 200 mg b.i.d, 6 subjects",0
same,No. with grade 3 & 4 Hypokalemia,"[2]; 200 mg b.i.d, 6 subjects",0
same,No. with grade 3 & 4 Hyponatraemia,"[2]; 200 mg b.i.d, 6 subjects",0
same,No. with grade 3 & 4 Hypotension,"[2]; 200 mg b.i.d, 6 subjects",0
same,No. with grade 3 & 4 Lymphopenia,"[2]; 200 mg b.i.d, 6 subjects",0
same,No. with grade 3 & 4 Rash,"[2]; 200 mg b.i.d, 6 subjects",0
same,No. with grade 3 & 4 adverse events,"[2]; 200 mg b.i.d, 6 subjects",2
same,No. with grade 3 & 4 γ GT increase,"[2]; 200 mg b.i.d, 6 subjects",1
same,Patients with derangements in liver biochemistry (γGT and ALP elevations),[2]; 200 mg b.i.d.,4 out of 6
same,No. with grade 3 & 4 ALT increased,"[2]; 800 mg b.i.d, 12 subjects",0
same,No. with grade 3 & 4 AST increased,"[2]; 800 mg b.i.d, 12 subjects",0
same,No. with grade 3 & 4 Alk Phos increase,"[2]; 800 mg b.i.d, 12 subjects",0
same,No. with grade 3 & 4 Anorexia,"[2]; 800 mg b.i.d, 12 subjects",1
same,No. with grade 3 & 4 Bilirubin increase,"[2]; 800 mg b.i.d, 12 subjects",0
same,No. with grade 3 & 4 CKMB increase,"[2]; 800 mg b.i.d, 12 subjects",0
same,No. with grade 3 & 4 Fatigue,"[2]; 800 mg b.i.d, 12 subjects",1
same,No. with grade 3 & 4 Hyperglycaemia,"[2]; 800 mg b.i.d, 12 subjects",1
same,No. with grade 3 & 4 Hypokalemia,"[2]; 800 mg b.i.d, 12 subjects",3
same,No. with grade 3 & 4 Hyponatraemia,"[2]; 800 mg b.i.d, 12 subjects",1
same,No. with grade 3 & 4 Hypotension,"[2]; 800 mg b.i.d, 12 subjects",1
same,No. with grade 3 & 4 Lymphopenia,"[2]; 800 mg b.i.d, 12 subjects",1
same,No. with grade 3 & 4 Rash,"[2]; 800 mg b.i.d, 12 subjects",1
same,No. with grade 3 & 4 adverse events,"[2]; 800 mg b.i.d, 12 subjects",7
same,No. with grade 3 & 4 γ GT increase,"[2]; 800 mg b.i.d, 12 subjects",3
same,Patients with hypokalaemia (<3.0 mmol l^−1),[2]; 800 mg b.i.d.,five of 12
same,Patients with seliciclib-induced hyperglycaemia,[2]; 800 mg b.i.d.,five and five of 12
same,Dose-limiting toxicities,"[2]; 800 mg b.i.d. p.o., 7 days every 21 days","grade 3 fatigue, grade 3 skin rash, grade 3 hyponatraemia and grade 4 hypokalaemia"
same,Patients with derangements in liver biochemistry (γGT and ALP elevations),[2]; 800 mg b.i.d.,10 out of 12
same,Patients with grade 1 hypokalaemia,"[2]; 800 mg b.i.d., 12 patients",two
same,Patients with grade 3 hypokalaemia,"[2]; 800 mg b.i.d., 12 patients",two
same,Patients with grade 4 hypokalaemia,"[2]; 800 mg b.i.d., 12 patients",one
same,Patients who experienced nausea,"[2]; 800 mg dose level, not dose-limiting",11 of the 12
same,Overall haematological toxicity,[2]; all dose levels,mild
same,Patients with seliciclib-related DLTs,[2]; final six patients treated at 800 mg,Four of the final six
same,Serum potassium (lowest level),"[2]; one patient, 800 mg b.i.d., day 7 of course 1",2.2 mmol/L
same,Blood pressure (hypotension),[2]; [8],82/52
same,Serum potassium nadir,[2]; [8],2.5 mmol/L
same,Serum sodium (hyponatraemia),[2]; [8],127 mmol/L
same,Creatinine,"[2]; same patient, 800 mg b.i.d., course 2, normal range <110",130 µmol/L
same,Inhibition of Cdk8,Cdk8,only a weak inhibitor
same,peak seliciclib concentration,[3],approximately 100 μM
same,Recommended phase II dose,[4],2500 mg per day
same,Inhibition of Cdk6,Cdk6,only a weak inhibitor
same,Preclinical toxicology findings,[5],"anaemia, leucocytosis, bone marrow hyperplasia, polydipsia, polyuria and gastric ulceration"
same,Patients with stable disease after course 2,malignant solid tumour; 100 mg b.i.d.,Two of three
same,Patients with stable disease after course 2,malignant solid tumour; 200 mg b.i.d.,two of six
same,Patients with stable disease after course 2,malignant solid tumour; 800 mg b.i.d.,three of 12
same,Objective tumour responses,malignant solid tumour; all dose levels,No objective tumour responses
same,Patients with disease stabilisation,"malignant solid tumour; all dose levels, 21 treated patients",eight
same,Duration of disease stabilisation,"malignant solid tumour; one patient with ovarian cancer, six courses",18 weeks
same,Alterations of retinoblastoma phosphorylation and cyclin D1 levels,[6],not demonstrated; also recorded: No reliably detectable alterations
same,Urinary retinol binding protein,"[7]; Patient 20, Day 3, 800 mg b.i.d.",59.2 mg/mol creatinine
same,Urinary retinol binding protein,"[7]; Patient 20, Day 14, 800 mg b.i.d.",20.8 mg/mol creatinine
same,Urinary retinol binding protein,"[7]; Patient 21, Day 3, 800 mg b.i.d.",44.7 mg/mol creatinine
same,Urinary retinol binding protein,"[7]; Patient 21, Day 14, 800 mg b.i.d.",25.7 mg/mol creatinine
same,Urinary retinol binding protein,"[7]; Patient 22, Day 3, 800 mg b.i.d.",7.9 mg/mol creatinine
same,Urinary retinol binding protein,"[7]; Patient 22, Day 14, 800 mg b.i.d.",40.1 mg/mol creatinine

# — publication PMC2360206 (British Journal of Cancer, 2006)
